ChEMBL document CHEMBL1201862, “PubChem BioAssay data set” (2004)
Activity calls are given as the source filed them.

Key:
[1] = THP-1 cell cytotoxicity, dose response, cytotoxicity control for non-replicating M. tuberculosis project (AID 489025); type: functional
[2] = Luminescence Cell-Based Dose Retest to Confirm Inhibitors of Cancer Stem Cells. [Related pubchem assays (depositor defined):AID2717, AID2721]; type: functional; settings: Homo sapiens
[3] = cells; type: functional
[4] = target: T1, Replicative DNA helicase DnaB (Mycobacterium tuberculosis, UniProt P9WMR3); experiment: DnaB intein splicing inhibitors, dose response, biochemical, cell-free fluorescence (AID 449749); type: functional
T1 sequence (P9WMR3 whole entry): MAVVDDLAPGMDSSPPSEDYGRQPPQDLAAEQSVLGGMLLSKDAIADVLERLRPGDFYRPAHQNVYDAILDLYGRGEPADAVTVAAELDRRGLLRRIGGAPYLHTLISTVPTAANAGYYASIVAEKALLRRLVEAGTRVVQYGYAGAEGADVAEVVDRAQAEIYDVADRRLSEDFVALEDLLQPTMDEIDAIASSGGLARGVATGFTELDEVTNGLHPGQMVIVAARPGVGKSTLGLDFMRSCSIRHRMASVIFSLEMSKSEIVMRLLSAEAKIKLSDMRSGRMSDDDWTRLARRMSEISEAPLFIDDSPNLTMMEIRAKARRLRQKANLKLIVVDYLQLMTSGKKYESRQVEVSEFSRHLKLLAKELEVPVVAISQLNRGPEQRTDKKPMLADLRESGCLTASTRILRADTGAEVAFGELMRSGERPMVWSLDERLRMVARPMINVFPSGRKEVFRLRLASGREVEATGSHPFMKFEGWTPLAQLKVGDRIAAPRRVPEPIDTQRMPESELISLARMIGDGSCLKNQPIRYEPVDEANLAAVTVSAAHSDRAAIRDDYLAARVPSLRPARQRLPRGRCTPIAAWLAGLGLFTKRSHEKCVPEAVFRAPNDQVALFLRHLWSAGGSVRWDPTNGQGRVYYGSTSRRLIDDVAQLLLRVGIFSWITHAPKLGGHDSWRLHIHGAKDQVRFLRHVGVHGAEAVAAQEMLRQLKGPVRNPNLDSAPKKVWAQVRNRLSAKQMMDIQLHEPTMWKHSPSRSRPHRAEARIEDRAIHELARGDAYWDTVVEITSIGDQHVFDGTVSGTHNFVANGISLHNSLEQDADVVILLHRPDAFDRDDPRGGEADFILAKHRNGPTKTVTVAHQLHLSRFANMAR

[5] = target: T2, Protein RecA (Mycobacterium tuberculosis, UniProt P9WHJ3); experiment: Fluorescence Cell-Free Homogeneous Dose Retest to Identify Inhibitors of RecA-Intein Splicing Activity. [Related pubchem assays (depositor defined):AID2097, AID2223, AID489010, AID492950]; type: functional
T2 sequence (P9WHJ3 whole entry): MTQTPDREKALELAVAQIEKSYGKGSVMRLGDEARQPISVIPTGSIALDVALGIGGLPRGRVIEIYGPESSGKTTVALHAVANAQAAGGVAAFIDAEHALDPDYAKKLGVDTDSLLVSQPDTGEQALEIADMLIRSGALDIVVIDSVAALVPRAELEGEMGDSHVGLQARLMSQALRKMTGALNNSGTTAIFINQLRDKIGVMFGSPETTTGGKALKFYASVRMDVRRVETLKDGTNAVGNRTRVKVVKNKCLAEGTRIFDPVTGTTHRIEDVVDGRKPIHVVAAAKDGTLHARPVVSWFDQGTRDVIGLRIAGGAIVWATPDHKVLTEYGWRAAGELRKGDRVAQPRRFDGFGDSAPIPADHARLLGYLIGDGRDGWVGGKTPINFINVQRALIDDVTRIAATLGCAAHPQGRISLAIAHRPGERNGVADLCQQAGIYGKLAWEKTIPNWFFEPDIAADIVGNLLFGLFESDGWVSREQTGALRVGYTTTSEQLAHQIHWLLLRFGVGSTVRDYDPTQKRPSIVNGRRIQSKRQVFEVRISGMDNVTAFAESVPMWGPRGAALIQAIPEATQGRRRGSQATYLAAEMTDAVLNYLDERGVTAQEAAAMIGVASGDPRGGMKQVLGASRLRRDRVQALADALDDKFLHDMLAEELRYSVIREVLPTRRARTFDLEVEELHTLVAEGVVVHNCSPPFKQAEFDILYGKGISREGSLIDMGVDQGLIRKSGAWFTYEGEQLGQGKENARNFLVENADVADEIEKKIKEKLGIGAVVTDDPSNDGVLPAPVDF

[6] = Shn3 3'UTR reporter inhibitors, dose response, cell-based, Clone20 osteoblasts, firefly luciferase, cherry-picked (AID 624132); type: functional;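 further: firefly luciferase luminescence from reporter carrying the Shn3 3'UTR in osteoblasts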
[7] = HepG2 cell cytotoxicity, dose response, cytotoxicity control for Shn3 inhibitor project, CellTiter-Glo, cherry-picked (AID 624134); type: functional, cell-based
[8] = control 3'UTR Renilla luciferase suppression, dose response, counter-screen for Shn3 inhibitor project, cell-based, Clone20-Shn3RL, cherry-picked (AID 624133); type: functional
[9] = Fluorescence-based cell-based high throughput dose response assay for inhibitors of the interaction of nucleotide-binding oligomerization domain containing 2 (NOD2) and the receptor-interacting serine-threonine kinase 2 (RIPK2).; type: functional; settings: Homo sapiens
[10] = reduction of Shn3 3'UTR firefly luciferase signal, dose response, Schnurri-3 inhibitor project, cell-based, Clone20 osteoblasts, cherry-pick, set 2 (AID 720490); type: functional;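 further: actives lower the luminescence signal as inhibitors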
[11] = inhibitors of PGC1a acetylation in cells, dose response, cell-based, cherry-picked samples (AID 720514); type: functional;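 further: potency may reflect raised or lowered acetylation signal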
[12] = inhibitors of control Renilla luciferase reporter, dose response, counter-screen for Shn3 3'UTR targeting project, Clone20-Shn3RL cells, dual-Glo, cherry-pick, set 2 (AID 720724); type: functional, cell-based; settings: Dual-Go Shn3RL
[13] = cells
[14] = Luminescence Cell-Based Dose Response to Identify Activators of 5'UTR Stem-Loop Driven Prion Protein mRNA Translation in H4-C Neuroglioblastoma Cells. [Related pubchem assays: 1829 (Project Summary), 1814 (Primary HTS)]; type: functional
[15] = Luminescence Cell-Based Dose Confirmation HTS to Identify Activators of 5'UTR Stem-Loop Driven Alpha-Synuclein mRNA Translation in H4 Neuroglioblastoma Cells. [Related pubchem assays: 1829 (Project Summary), 1814 (Primary HTS)]; type: functional
[16] = Luminescence Cell-Based Dose Response HTS to Identify Activators of Luciferase Translation or Activity in H4 […] Cells. [Related pubchem assays: 1829 (Project Summary), 1814 (Primary HTS)]; type: functional
[17] = test system: H4; experiment: Luminescence Cell-Based Dose Response HTS to Identify Activators of 5'UTR Stem-Loop Driven Prion Protein mRNA Translation in H4 Neuroglioblastoma Cells. [Related pubchem assays: 1829 (Project Summary), 1814 (Primary HTS)]; type: functional; settings: Homo sapiens
[18] = Luminescence Cell-Based Dose Response to Identify Activators of Luciferase Translation or Activity in H4-C Neuroglioblastoma Cells. [Related pubchem assays: 1829 (Project Summary), 1814 (Primary HTS)]; type: functional
[19] = Luminescence Cell-Based Dose Confirmation to Identify Activators of 5'UTR Stem-Loop Driven Alpha-Synuclein mRNA Translation in H4 Neuroglioblastoma Cells. [Related pubchem assays: 1829 (Project Summary), 1814 (Primary HTS)]; type: functional
[20] = miR-122 activators in hepatoma reporter cells, dose response, cell-based, Huh7 psiCHECK-miR122, Renilla luciferase, cherry-picked (AID 651956); type: functional;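 further: huh7 hepatoma cells stably carrying a psiCHECK-2 miR-122 sensor plasmid; renilla luciferase signal reporting endogenous miR-122 activity after 48 h compound exposure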
[21] = HEK293T cytotoxicity, dose response, cytotoxicity control for miR-122 modulator project, cell-based, inhibitor set, cherry-pick, set 2 (AID 720697); type: functional
[22] = HEK293T cytotoxicity, dose response, cytotoxicity control for miR-122 modulator project, cell-based, activator set, cherry-pick (AID 720690); type: functional;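 further: HEK293T human cells scored for general mammalian cytotoxicity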
[23] = target: Cytochrome P450 3A4 (Homo sapiens, UniProt P08684);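 further: CYP3A4 tested as one member of a cytochrome P450 panel screen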
Cytochrome P450 3A4, sequence (P08684 whole entry, the tested form may be a part): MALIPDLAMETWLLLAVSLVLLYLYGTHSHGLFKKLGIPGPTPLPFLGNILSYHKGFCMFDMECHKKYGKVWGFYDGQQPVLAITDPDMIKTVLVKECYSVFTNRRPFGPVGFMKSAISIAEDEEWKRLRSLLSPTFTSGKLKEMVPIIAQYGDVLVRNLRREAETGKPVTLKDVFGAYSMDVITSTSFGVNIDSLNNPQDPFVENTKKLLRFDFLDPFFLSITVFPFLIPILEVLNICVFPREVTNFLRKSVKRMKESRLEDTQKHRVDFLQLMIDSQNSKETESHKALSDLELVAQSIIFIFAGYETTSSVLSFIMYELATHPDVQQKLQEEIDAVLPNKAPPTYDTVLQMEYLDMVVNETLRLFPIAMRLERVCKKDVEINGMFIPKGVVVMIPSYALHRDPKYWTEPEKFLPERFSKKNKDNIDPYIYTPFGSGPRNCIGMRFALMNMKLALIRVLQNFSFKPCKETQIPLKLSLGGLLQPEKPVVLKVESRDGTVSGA

[24] = target: T3, Oxysterols receptor LXR-beta (Homo sapiens, UniProt P55055); type: functional, cell-based;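 further: agonist activity at LXR measured by a cell-based luminescence readout across a dose range, run as a counterscreen for daf-12 agonists; HEK293 cells with Gal4-LXR fusion and GAL4-driven luciferase reporter; potency for activation of Gal4-LXR reporter so compounds are agonists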
T3 sequence (P55055 whole entry): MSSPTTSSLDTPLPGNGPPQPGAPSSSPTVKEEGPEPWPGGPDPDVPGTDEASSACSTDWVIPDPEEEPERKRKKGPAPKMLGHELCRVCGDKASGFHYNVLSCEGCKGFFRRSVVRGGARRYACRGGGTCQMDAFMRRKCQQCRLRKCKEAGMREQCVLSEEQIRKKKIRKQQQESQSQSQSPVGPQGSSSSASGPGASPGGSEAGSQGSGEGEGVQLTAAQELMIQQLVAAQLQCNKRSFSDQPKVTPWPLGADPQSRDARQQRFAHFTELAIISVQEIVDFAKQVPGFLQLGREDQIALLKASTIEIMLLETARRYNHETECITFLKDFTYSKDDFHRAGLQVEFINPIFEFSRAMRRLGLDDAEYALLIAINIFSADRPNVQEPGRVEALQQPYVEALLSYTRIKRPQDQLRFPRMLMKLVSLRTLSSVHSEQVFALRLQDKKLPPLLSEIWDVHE

[25] = test system: HEK293; experiment: HEK293T cell cytotoxicity, dose response, cytotoxicity control, ATP luminescence, cherry-pick samples (AID 687005); type: functional, cell-based; settings: Homo sapiens;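 further: cells exposed to compound for 48 hours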
[26] = HEK293 Cytotoxicity Assay Measured in Cell-Based System Using Plate Reader - 7071-01_Inhibitor_Dose_CherryPick_Activity_Set2.; type: functional
[27] = target: Potassium channel subfamily K member 3 (Homo sapiens, UniProt O14649); experiment: TASK1 (KCNK3) potassium channel inhibitors, SAR follow-up, CHO cells, FluxOR thallium flux (AID 652212); type: functional
Potassium channel subfamily K member 3, sequence (O14649 whole entry): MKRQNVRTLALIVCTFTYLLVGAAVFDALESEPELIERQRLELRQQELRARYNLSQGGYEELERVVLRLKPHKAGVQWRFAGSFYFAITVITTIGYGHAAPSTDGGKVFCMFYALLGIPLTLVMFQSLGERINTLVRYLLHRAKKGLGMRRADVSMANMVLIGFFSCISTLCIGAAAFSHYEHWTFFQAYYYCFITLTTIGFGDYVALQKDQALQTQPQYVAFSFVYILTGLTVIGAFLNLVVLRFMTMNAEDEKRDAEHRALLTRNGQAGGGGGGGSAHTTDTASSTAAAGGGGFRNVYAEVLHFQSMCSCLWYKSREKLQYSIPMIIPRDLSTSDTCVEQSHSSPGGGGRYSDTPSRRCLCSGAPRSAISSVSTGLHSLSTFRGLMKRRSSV

[28] = HeLa cell cytotoxicity, dose response, cytotoxicity control, 24 h, plate reader, dry powder (AID 686928); type: functional, cell-based
[29] = HEK293 cell cytotoxicity, dose response, cytotoxicity control, ATP luminescence, dry powder, Set6 (AID 743142); type: functional, cell-based
[30] = A549 cell cytotoxicity, dose response, cytotoxicity control, CellTiter-Glo luminescence, dry powder, set 3 (AID 743146); type: functional, cell-based
[31] = MITF Orthogonal Assay: SK-MEL-5 CTG Assay Measured in Cell-Based System Using Plate Reader - 2084-02_Inhibitor_Dose_DryPowder_Activity_Set7.; type: functional
[32] = MITF: Counter assay: A375 proliferation Measured in Cell-Based System Using Plate Reader - 2084-03_Inhibitor_Dose_DryPowder_Activity_Set8.; type: functional; settings: A-375
[33] = TRPM1 promoter luciferase reporter signal decrease, dose response, MITF inhibitor project, cell-based, SK-MEL-5, dry powder, set 8 (AID 624430); type: functional
[34] = target: Metabotropic glutamate receptor 3 (Rattus norvegicus, UniProt P31422); experiment: mGlu3 negative allosteric modulator potency, dose response, HEK/GIRK cells, thallium flux, rat (AID 651839); type: functional
Metabotropic glutamate receptor 3, sequence (P31422 whole entry): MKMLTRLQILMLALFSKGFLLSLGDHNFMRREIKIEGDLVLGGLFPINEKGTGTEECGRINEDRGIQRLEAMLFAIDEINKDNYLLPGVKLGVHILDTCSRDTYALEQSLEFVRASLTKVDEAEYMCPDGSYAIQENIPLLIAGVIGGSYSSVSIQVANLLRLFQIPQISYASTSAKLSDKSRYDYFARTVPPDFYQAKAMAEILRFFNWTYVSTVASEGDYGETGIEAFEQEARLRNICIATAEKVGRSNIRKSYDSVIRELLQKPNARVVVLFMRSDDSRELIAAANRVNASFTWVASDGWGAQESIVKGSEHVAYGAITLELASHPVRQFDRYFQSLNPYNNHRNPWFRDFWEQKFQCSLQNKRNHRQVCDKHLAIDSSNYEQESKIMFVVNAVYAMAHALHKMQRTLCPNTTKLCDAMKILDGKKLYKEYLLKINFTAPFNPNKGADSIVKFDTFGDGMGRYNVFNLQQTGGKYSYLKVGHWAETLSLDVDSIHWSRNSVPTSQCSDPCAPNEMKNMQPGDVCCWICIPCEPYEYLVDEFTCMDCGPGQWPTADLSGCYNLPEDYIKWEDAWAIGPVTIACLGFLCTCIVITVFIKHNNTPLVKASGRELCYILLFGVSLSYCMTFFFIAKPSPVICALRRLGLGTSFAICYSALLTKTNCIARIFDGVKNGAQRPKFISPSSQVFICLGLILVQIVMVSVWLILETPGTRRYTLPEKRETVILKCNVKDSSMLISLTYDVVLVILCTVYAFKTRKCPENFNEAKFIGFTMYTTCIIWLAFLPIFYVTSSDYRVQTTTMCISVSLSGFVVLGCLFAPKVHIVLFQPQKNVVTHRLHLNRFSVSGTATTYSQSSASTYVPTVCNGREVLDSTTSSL

[35] = M. tuberculosis growth inhibition, HTS (AID 449762); type: functional
[36] = target: NS3 (Hepatitis C virus, UniProt A3EZJ3); experiment: HCV NS3 helicase inhibitor potency, dose response, biochemical, fluorescence polarization, ChemBridge library (AID 743264)
NS3, sequence (A3EZJ3 whole entry): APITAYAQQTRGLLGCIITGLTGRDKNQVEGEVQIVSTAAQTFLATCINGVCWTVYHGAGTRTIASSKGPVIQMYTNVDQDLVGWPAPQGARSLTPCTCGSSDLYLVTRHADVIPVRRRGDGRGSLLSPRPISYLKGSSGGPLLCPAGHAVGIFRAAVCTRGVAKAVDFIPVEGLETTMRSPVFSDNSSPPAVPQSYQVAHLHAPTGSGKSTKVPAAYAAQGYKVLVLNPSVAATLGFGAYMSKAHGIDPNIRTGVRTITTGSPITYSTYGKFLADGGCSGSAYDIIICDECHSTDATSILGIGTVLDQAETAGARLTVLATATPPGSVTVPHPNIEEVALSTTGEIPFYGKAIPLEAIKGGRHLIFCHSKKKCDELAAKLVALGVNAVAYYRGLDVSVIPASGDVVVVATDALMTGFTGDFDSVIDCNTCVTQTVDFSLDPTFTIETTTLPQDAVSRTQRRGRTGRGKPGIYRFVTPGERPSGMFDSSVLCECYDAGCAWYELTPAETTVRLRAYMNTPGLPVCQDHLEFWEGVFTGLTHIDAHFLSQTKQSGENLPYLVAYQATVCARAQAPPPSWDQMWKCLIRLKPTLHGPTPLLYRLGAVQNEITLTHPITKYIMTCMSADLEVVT

[37] = target: Cytochrome P450 2C9 (Homo sapiens, UniProt P11712)
Cytochrome P450 2C9, sequence (P11712 whole entry): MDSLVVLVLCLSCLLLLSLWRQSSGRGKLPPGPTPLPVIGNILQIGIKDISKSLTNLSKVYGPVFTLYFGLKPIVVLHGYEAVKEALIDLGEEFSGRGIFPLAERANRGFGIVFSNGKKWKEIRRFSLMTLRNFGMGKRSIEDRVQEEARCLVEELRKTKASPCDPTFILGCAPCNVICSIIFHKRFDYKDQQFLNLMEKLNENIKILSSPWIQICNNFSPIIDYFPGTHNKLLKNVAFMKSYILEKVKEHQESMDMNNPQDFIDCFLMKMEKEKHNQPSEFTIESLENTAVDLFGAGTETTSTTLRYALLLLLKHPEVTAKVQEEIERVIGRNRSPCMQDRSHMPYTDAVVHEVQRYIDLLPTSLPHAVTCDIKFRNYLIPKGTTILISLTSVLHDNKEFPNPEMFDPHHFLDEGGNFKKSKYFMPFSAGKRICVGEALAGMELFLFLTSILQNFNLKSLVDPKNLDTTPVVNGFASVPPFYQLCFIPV

COc1ccc(-c2cc(C(F)(F)F)nc(S(C)(=O)=O)n2)cc1
CC50 [1]: 26 µM (active) | AC50 [2]: 3.81 µM (active) | IC50 [3]: 10.9 µM (active) | AC50 [4]: 5.99 µM (active) | EC50 [5]: 4.88 µM (active) | AC50 [6]: 4.46 µM (active) | AC50 [7]: 45.9 µM (active) | AC50 [8]: 26.3 µM (active) | IC50 [9]: 5.47 µM (active) | AC50 [10]: 5.05 µM (active) | AC50 [11]: 15.3 µM (active) | AC50 [12]: 48.6 µM (active)

COc1cc(C(=O)NCCCNc2nc3c(C)cc(C)cc3cc2C#N)cc(OC)c1OC
AC50 [13]: 4.79 µM (active)

CCOC(=O)c1cc2c(C)n(-c3ccc(C)cc3)c(C)c2ccc1=O
EC50 [14]: 0.333 µM (active) | EC50 [15]: 0.1 µM (active) | EC50 [16]: < 0.1 µM (active) | EC50 [17]: < 0.1 µM (active) | EC50 [18]: 0.376 µM (active) | EC50 [19]: 0.262 µM (active) | AC50 [20]: 1.46 µM (active) | AC50 [21]: 7.08 µM (active) | AC50 [22]: 3.93 µM (active) | AC50 [23]: inconclusive

Cc1ccc(N/C=C(/C#N)c2ccsc2)cc1C
EC50 [24]: > 67.5 µM (inactive)

COc1ccccc1-c1ccc([C@H]2[C@H](C#N)N(C(=O)C3CC3)[C@H]2CO)cc1
AC50 [25]: 24.8 µM (active) | AC50 [26]: 24.8 µM (active)

CCOc1ccccc1NC(=O)c1cccc(C(=O)NC2CCCC2)c1
IC50 [27]: 0.342 µM (active)

O=C(Nc1nnc(C2CCCC2)o1)C1CCCCC1
AC50 [28]: 165 µM (active)

O=C(CCNC(=O)c1ccc(C(F)(F)F)cc1)N[C@@H]1CCCc2ccccc21
AC50 [29]: 7.54 µM (active) | AC50 [30]: 26 µM (active)

COc1ccc(NC2=C(N3CCN(C(C)C)CC3)C(=O)c3ccccc3C2=O)cc1
AC50 [31]: 16.6 µM (active) | AC50 [32]: 45 µM (active) | AC50 [33]: 3.28 µM (active)

COc1ccc(-c2ccc3cc(C(=O)N4CCCC(CO)C4)ccc3c2)cn1 (configuration not stated)
IC50 [34]: 6.77 µM (active)

O=C(O)Cc1c[nH]c2ccc(O)cc12
IC50 [35]: > 100 µM (active) | IC50 [36]: 69.3 µM (active) | AC50 [37]: inconclusive
